“And” between values parts separate entries of the source, which are not always exact repeats. Identical values can stand only once.
Test system: B16F10 melanoma colonies
Assay: Melanoma-colony formation in the lungs
Type: in vivo, mouse
Method: Murine B16F10 melanoma cell line with a strong metastatic property to form tumour colonies in the lungs was obtained from Dr. Longenecker, Department of Immunology, University of Alberta. Such cell line is well recognized and readily available as reported in Miura et al, supra. The cells were grown in T-75 flasks in dulbecco's MEM available from Gipco Lab Inc., Grand Island, N.Y., supplemented with 10% fetal calf serum, also obtained from Gipco, penicillin (100 μ/ml) and streptomycin (100 μg/ml). The cells were incubated at 37° C. in humidified atmosphere of 5% CO2 in air. […] Viable cells were identified by trypan blue dye exclusion and counted. The cell suspension was diluted to the desired concentration. […] On day zero, the mice were inoculated via the lateral tail vein with 5×10^4 cells in 0.2 ml of N saline. The test drugs were dissolved in normal saline, sterilized by membrane filtration, and administered in a dose of 300 mg/Kg (4 -S-CAP) or 900 mg/Kg (N-Ac-4-S-CAP); starting on day five, the control solution or drug was injected i.p. daily for 14 days. On day 26, the mice were killed by cervical dislocation, their lungs were removed, and the number of melanoma colonies was counted under a dissecting microscope. The results were expressed as percentage reduction in the number of colonies: [a-b/a]×100, where a=colonies in control group and b=colonies in experimental group.

Structure (SMILES): NCCSc1ccc(O)cc1 [4-S-CAP, 4-S-cysteaminylphenol, reference compound]
- Colonies, % control (300 mg/kg i.p. daily for 14 days, day 26): 32.4% and 30%
- Number of B16F10 melanoma colonies (in words): significantly reduced
